Data: patent US6531292B1, “Genes and proteins controlling cholesterol synthesis” (The Regents of the University of California, priority 1995, dated 2003)
Where “and” joins values, the source holds several entries; their conditions need not be identical. Equal entries are not always repeated. Square brackets hold non-standard residues; d marks the D form. Peptide text beside a SMILES is read from it. Nle = CCCC[C@H](N)C(=O)O

Tests used:
[1] = test system: mammalian HMG-R; details: mammalian cells, previous studies; cited from earlier work
[2] = test system: proteasome; details: Jensen et al. 1995; cited from earlier work
[3] = test system: strain expressing 6myc-Hmg2p (RHY244); test: Lovastatin sensitivity (growth, plating efficiency) of strain expressing 6myc-Hmg2p; format: cell-based, yeast; details: liquid medium, FIG. 1d
[4] = test system: strain expressing Hmg2p (RHY183); test: Lovastatin sensitivity (growth, plating efficiency) of strain expressing Hmg2p; format: cell-based, yeast
[5] = biological target: T1, Hmg2p (Saccharomyces cerevisiae, UniProt P12684); test: Hmg2p degradation by cycloheximide chase and stationary chase with immunoblotting; format: cell-based, yeast; details: small dose of lovastatin (50 μg/ml) added to cultures
T1 construct: Note the lowered mobility of the 6myc-Hmg2p protein as compare to the native Hmg2p; expressed in transfected cells; host or cells: S. cerevisiae strain RHY183 (hmg1 and hmg2 disrupted; single integrated HMG2 coding region under the GAPDH promoter)
T1 sequence (P12684 1-1045): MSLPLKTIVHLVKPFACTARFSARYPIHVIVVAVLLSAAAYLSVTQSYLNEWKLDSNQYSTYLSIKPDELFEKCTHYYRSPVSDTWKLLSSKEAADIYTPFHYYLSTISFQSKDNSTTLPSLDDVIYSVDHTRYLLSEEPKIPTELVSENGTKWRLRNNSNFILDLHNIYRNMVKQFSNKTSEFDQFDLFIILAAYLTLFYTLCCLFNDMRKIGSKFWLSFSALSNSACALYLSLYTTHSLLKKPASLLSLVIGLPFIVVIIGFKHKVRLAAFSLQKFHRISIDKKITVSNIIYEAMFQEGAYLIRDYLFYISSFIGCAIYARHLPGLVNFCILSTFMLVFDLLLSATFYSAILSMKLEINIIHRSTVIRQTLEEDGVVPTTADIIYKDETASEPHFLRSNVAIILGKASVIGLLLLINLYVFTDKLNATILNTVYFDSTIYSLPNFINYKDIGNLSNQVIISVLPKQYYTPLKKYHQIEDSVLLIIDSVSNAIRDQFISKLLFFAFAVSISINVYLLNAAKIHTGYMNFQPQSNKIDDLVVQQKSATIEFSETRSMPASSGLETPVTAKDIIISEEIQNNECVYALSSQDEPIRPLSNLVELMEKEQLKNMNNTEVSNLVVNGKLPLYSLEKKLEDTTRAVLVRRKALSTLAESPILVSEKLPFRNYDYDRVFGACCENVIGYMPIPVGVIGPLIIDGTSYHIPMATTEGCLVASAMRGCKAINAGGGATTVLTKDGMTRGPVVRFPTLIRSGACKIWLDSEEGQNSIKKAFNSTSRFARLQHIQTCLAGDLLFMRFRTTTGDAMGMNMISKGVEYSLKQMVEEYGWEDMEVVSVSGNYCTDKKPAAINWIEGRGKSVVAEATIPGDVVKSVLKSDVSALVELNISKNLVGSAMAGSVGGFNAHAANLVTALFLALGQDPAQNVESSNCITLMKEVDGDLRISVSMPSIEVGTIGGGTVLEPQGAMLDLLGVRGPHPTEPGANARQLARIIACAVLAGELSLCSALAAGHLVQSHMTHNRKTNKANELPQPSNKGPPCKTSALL
Text: (§1) FIG. 1. 6myc-Hmg2p: an unregulated variant of Hmg2p. A) schematic diagram of the unregulated 6myc-Hmg2p. […] The tagged protein was still capable of catalyzing the reduction of 3-hydroxy-3-methyl glutaryl CoA (HMG-CoA) to mevalonate (MEV), an essential intermediate of cholesterol biosynthesis. B) The degradation of 6myc-Hmg2p was not regulated by the mevalonate pathway. Cells expressing 6myc-Hmg2p (RHY244) or Hmg2p (RHY183) were examined for degradation of each protein by addition of cycloheximide at time zero and subsequent immunoblotting, as described by Hampton and Rine (J Cell Biol 125: 299-312, 1994). In the indicated samples, 50 μg/ml of lovastatin was added along with the cycloheximide at t=0. The 6myc-Hmg2planes (left panel) were immunoblotted using the 9E10 anti-myc antibody, and the Hmg2p lanes (right panel) were immunoblotted with affinity purified anti-Hmg1p protein. Each lane contained lysate from ˜0.2 O.D.600 units of cells. C) Test of 6myc-Hmg2p degradation by “stationary chase.” Log phase (OD600˜0.5) cultures of the strains used in Panel B were allowed to grow for an additional 15 hours at 30° C., and then subjected to lysis and immunoblotting to evaluate degradation of the expressed reductase (Hampton et al., Proc. Natl. Acad. Sci. USA. 93: 828-833, 1996). […]

[6] = test system: 6myc-Hmg2p; test: 6myc-Hmg2p degradation by cycloheximide chase and stationary chase with immunoblotting; format: cell-based, yeast; details: small dose of lovastatin (50 μg/ml) added to cultures
Text: as §1

[7] = test system: hrd mutant yeast strains; test: Canavanine sensitivity of hrd mutant strains on solid medium; format: cell-based; details: 1.5 μg/ml canavanine, 30° C., one week; versus isogenic parent strain
Method: FIG. 7. Proteasomal phenotypes associate with the hrd2-1 mutant. A) Canavanine sensitivity. Liquid cultures of strains with the indicated mutations, but otherwise isogenic, were spotted onto supplemented minimal medium ([…] of ˜0.5 OD) with or without 1.5 μg/ml canavanine as indicated, and allowed to grow at 30° C. for a week. B) Global ubiquitination. Lysates of the same strains were immunoblotted with affinity-purified anti-ubiquitin antibody to survey the degree of ubiquitination of cellular proteins. The line indicates the position of an 80 kD marker. Equal amounts of protein were loaded in each lane and the transfer efficiency from each lane was identical, as judged by India ink staining. The average increase in the amount of ubiquitin conjugates in the hrd2-1 mutant was approximately threefold over the amount in other strains. C) Complementation of the hrd2-1 mutant by the human TRAP-2 coding region. Strain RHY402 (hrd2-1, Ura^−) was transformed with parent vector pRH98-1, with a centromere plasmid containing the HRD2 gene (pRH482) or with a plasmid that expressed the TRAP-2 coding region from the GAPDH promoter (pRH492). These transformants are noted “vector, HRD2, and TRAP-2”, respectively. Each strain was then streaked on solid medium with 0 (top) or 200 μg/ml (bottom) and allowed to grow at 37° C. […]

CCCC[C@@H](C=O)NC(=O)[C@H](CC(C)C)NC(=O)[C@H](CC(C)C)NC(C)=O [ALLN] (Ac-Leu-Leu-[Nle]-aldehyde)
degradation of mammalian HMG-R [1]: inhibited | inhibition of the proteasome [2]: potent inhibitor

CC[C@H](C)C(=O)O[C@H]1C[C@@H](C)C=C2C=C[C@H](C)[C@H](CC[C@@H]3C[C@@H](O)CC(=O)O3)[C@H]21 [lovastatin]
lovastatin sensitivity relative to isogenic strain expressing HMG2 [3]: more sensitive | growth of strain ([4]; hmg1::LYS2 hmg2::HIS3 strain with single integrated HMG2 driven by GAPDH promoter, dose-dependent): blocked | plating efficiency of surviving colonies on lovastatin medium ([4]; non-mutagenized cells expressing wild-type Hmg2p, solid lovastatin-containing medium): 0.1-1% and ~1% | effect on degradation of wild-type Hmg2p [5]: dramatically stabilized | effect on degradation of 6myc-Hmg2p [6]: unaffected

N=C(N)NOCC[C@H](N)C(=O)O [canavanine]
sensitivity of hrd1 or hrd3 alleles to canavanine [7]: no more sensitive | sensitivity of hrd2 mutants to canavanine [7]: heightened sensitivity
